Results reported in US20080194616A1, “PYRIDOPYRIMIDINONE COMPOUNDS USEFUL IN TREATING SODIUM CHANNEL-MEDIATED DISEASES OR CONDITIONS” (Xenon Pharmaceuticals Inc., priority 2007, published 2008).
Where a name gives a salt, the structure may show the parent alone.

Compound	melting point
CC(C)c1nc2ccccn2c(=O)c1-c1ccc(NC2CCNC2)cc1 (stereo not shown) (as salt: hydrochloride) [Example 7.5, 2-(1-methylethyl)-3-[4-(pyrrolidin-3-ylamino)phenyl]-4H-pyrido[1,2-a]pyrimidin-4-one hydrochloride]	180 to 184 °C
CC(C)Nc1nc2ccccn2c(=O)c1-c1ccc(NC2CCNC2)cc1 (stereo not shown) (as salt: hydrochloride) [Example 7.9, 2-[(1-methylethyl)amino]-3-[4-(pyrrolidin-3-ylamino)phenyl]-4H-pyrido[1,2-a]pyrimidin-4-one hydrochloride]	232 to 236 °C
CCCNc1nc2ccccn2c(=O)c1-c1ccc(NC2CCNC2)cc1 (stereo not shown) (as salt: hydrochloride) [Example 7.8, 2-(propylamino)-3-[4-(pyrrolidin-3-ylamino)phenyl]-4H-pyrido[1,2-a]pyrimidin-4-one hydrochloride]	156 to 161 °C
CCCCc1nc2ccccn2c(=O)c1-c1ccc(N[C@@H]2CCN(C)C2)cc1 [Example 10, (R)-2-butyl-3-(4-{[1-methylpyrrolidin-3-yl]amino}phenyl)-4H-pyrido[1,2-a]pyrimidin-4-one]	141 to 143 °C
CCCCc1nc2ccccn2c(=O)c1-c1cccc(NC2CCNC2)c1 (stereo not shown) (as salt: hydrochloride) [Example 7.4, 2-butyl-3-[3-(pyrrolidin-3-ylamino)phenyl]-4H-pyrido[1,2-a]pyrimidin-4-one hydrochloride]	> 170 °C
CCCCc1nc2ccccn2c(=O)c1-c1ccc(NC2CCCNC2)cc1 (stereo not shown) (as salt: hydrochloride) [Example 6, 2-butyl-3-[4-(piperidin-3-ylamino)phenyl]-4H-pyrido[1,2-a]pyrimidin-4-one hydrochloride]	178 to 185 °C
CCCCc1nc2ccccn2c(=O)c1-c1ccc(N[C@H]2CCN(C(=O)OC(C)(C)C)C2)cc1 [Example 3.8, (S)-tert-butyl 3-(4-(2-butyl-4-oxo-4H-pyrido[1,2-a]pyrimidin-3-yl)phenylamino)pyrrolidine-1-carboxylate]	95 to 96 °C
COCCc1nc2ccccn2c(=O)c1-c1ccc(Cl)cc1 [Example 1.26, 3-(4-chlorophenyl)-2-(2-methoxyethyl)-4H-pyrido[1,2-a]pyrimidin-4-one]	116 to 118 °C
CCCOc1nc2ccccn2c(=O)c1-c1ccc(N[C@@H]2CCNC2)cc1 (as salt: trifluoroacetate) [Example 9.1, (R)-2-propoxy-3-(4-(pyrrolidin-3-ylamino)phenyl)-4H-pyrido[1,2-a]pyrimidin-4-one trifluoroacetate]	> 100 °C (dec.)
CC(C)CCc1nc2ccccn2c(=O)c1-c1ccc(N[C@@H]2CCNC2)cc1 (as salt: hydrochloride) [Example 7.6, (R)-2-isopentyl-3-(4-(pyrrolidin-3-ylamino)phenyl)-4H-pyrido[1,2-a]pyrimidin-4-one hydrochloride]	171 to 187 °C
Cc1nc2ccccn2c(=O)c1-c1ccc(N[C@@H]2CCNC2)cc1 (as salt: hydrochloride) [Example 6.3, (R)-2-methyl-3-(4-(pyrrolidin-3-ylamino)phenyl)-4H-pyrido[1,2-a]pyrimidin-4-one hydrochloride]	149 to 158 °C
CCCCc1nc2ccccn2c(=O)c1-c1ccc(N[C@@H]2CCN(C(=O)OC(C)(C)C)C2)cc1 [Example 3.9, (R)-tert-butyl 3-(4-(2-butyl-4-oxo-4H-pyrido[1,2-a]pyrimidin-3-yl)phenylamino)pyrrolidine-1-carboxylate]	98 to 99 °C
CCCc1nc2ccccn2c(=O)c1-c1ccc(Cl)cc1 [Example 1.4, 3-(4-chlorophenyl)-2-propyl-4H-pyrido[1,2-a]pyrimidin-4-one]	109 to 110 °C
CC(C)Nc1nc2ccccn2c(=O)c1-c1ccc(N[C@@H]2CCNC2)cc1 (as salt: hydrochloride) [Example 7.10, (R)-2-[(1-methylethyl)amino]-3-{4-[pyrrolidin-3-ylamino]phenyl}-4H-pyrido[1,2-a]pyrimidin-4-one hydrochloride]	229 to 234 °C
CCCCc1nc2ccccn2c(=O)c1-c1ccc2c(c1)CCN2 (as salt: hydrochloride) [Example 2, 2-butyl-3-(indolin-5-yl)-4H-pyrido[1,2-a]pyrimidin-4-one hydrochloride]	157 to 162 °C
CCCCc1nc2ccccn2c(=O)c1-c1ccc(NC[C@H]2CCCO2)cc1 (as salt: hydrochloride) [Example 3.27, (R)-2-butyl-3-(4-{[tetrahydrofuran-2-ylmethyl]amino}phenyl)-4H-pyrido[1,2-a]pyrimidin-4-one hydrochloride]	155 to 170 °C
CCCCc1nc2ccccn2c(=O)c1-c1ccc(N(C)C2CCCNC2)cc1 (stereo not shown) (as salt: hydrochloride) [Example 17, 2-butyl-3-{4-[methyl(piperidin-3-yl)amino]phenyl}-4H-pyrido[1,2-a]pyrimidin-4-one hydrochloride]	170 to 185 °C
COc1nc2ccccn2c(=O)c1-c1ccc(NC2CCNC2)cc1 (stereo not shown) (as salt: trifluoroacetate) [Example 9, 2-methoxy-3-[4-(pyrrolidin-3-ylamino)phenyl]-4H-pyrido[1,2-a]pyrimidin-4-one trifluoroacetate]	56 to 58 °C
CCCCc1nc2ccccn2c(=O)c1-c1ccc(N2CCNCC2)nc1 (as salt: hydrochloride) [Example 7.13, 2-butyl-3-(6-piperazin-1-ylpyridin-3-yl)-4H-pyrido[1,2-a]pyrimidin-4-one hydrochloride]	> 245 °C
O=c1c(-c2ccc(N[C@@H]3CCNC3)cc2)c(CCC2CC2)nc2ccccn12 (as salt: hydrochloride) [Example 7.7, (R)-2-(2-cyclopropylethyl)-3-(4-(pyrrolidin-3-ylamino)phenyl)-4H-pyrido[1,2-a]pyrimidin-4-one hydrochloride]	182 to 185 °C
CCCCc1nc2ccccn2c(=O)c1-c1ccc2[nH]ccc2c1 [Example 1.30, 2-butyl-3-(1H-indol-5-yl)-4H-pyrido[1,2-a]pyrimidin-4-one]	132 to 135 °C
CC(C)Nc1nc2ccccn2c(=O)c1-c1ccc(N[C@@H]2CCN(C(=O)OC(C)(C)C)C2)cc1 [Example 3.23, (R)-tert-butyl 3-[(4-{2-[(1-methylethyl)amino]-4-oxo-4H-pyrido[1,2-a]pyrimidin-3-yl}phenyl)amino]pyrrolidine-1-carboxylate]	208 to 211 °C
CCCCc1nc2ccccn2c(=O)c1-c1ccc(O[C@@H]2CCNC2)cc1 (as salt: hydrochloride) [Example 15, (R)-2-butyl-3-{4-[pyrrolidin-3-yloxy]phenyl}-4H-pyrido[1,2-a]pyrimidin-4-one hydrochloride]	132 to 140 °C
CCCCc1nc2ccccn2c(=O)c1-c1ccccc1Cl [Example 1.6, 2-butyl-3-(2-chlorophenyl)-4H-pyrido[1,2-a]pyrimidin-4-one]	118 to 120 °C
CCCCc1nc2ccccn2c(=O)c1-c1ccc(NC2CCN(C(=O)OC(C)(C)C)C2)cc1 (stereo not shown) [Example 3.7, tert-butyl 3-{[4-(2-butyl-4-oxo-4H-pyrido[1,2-a]pyrimidin-3-yl)phenyl]amino}pyrrolidine-1-carboxylate]	116 to 118 °C
